Data taken from US20100298325A1, “PYRIDINE DERIVATIVES FOR THE TREATMENT OF AMYLOID-RELATED DISEASES” (SENEXIS LIMITED, priority 2007, published 2010).
Like-named read-outs stand apart in the source and are kept apart here.

Assays:
[1] = test system: SH SY5Y cells; test: Cell viability assay for amyloid toxicity using MTT reduction; assay type: cell-based; settings: 10 μM Aβ(1-42), 24 h incubation, MTT reduction as measure of cell viability, read-out: IC50 protecting SH SY5Y cells from a toxic insult of 10 μM Aβ(1-42)
Experimental: Aβ(1-42) was prepared for amyloid aggregation and toxicity assays by dissolving Aβ(1-42) HCl salt in hexafluoroisopropanol (HFIP), with brief sonication and vortexing. This solution of the Aβ(1-42) peptide in HFIP was stored at 4° C. @ 2 mM. When required, an aliquot of this stock solution was freeze-dried and dissolved in DMSO to 200 times the required final assay concentration (e.g. 2 mM for a final assay concentration of 10 μM).
A 20 mM stock solution of each test compound was prepared in DMSO, and aliquots of these solutions were used to prepare further stock solutions of each test compound in DMSO, ranging in concentration from 3 μM up to 10 mM. These stock solutions were prepared for use as and when required and stored at −20° C. (maximum of 3 freeze-thaw cycles). The 20 mM parent stock solutions were stored frozen at −20° C.
The activity of compounds in protecting SH SY5Y cells from a toxic insult of 10 μM Aβ(1-42) was assessed by using inhibition of MIT reduction as a measure of cell viability. An aliquot (3 μl) of test compound [various concentrations] in DMSO is added to 294 μl of Opti-Mem (containing 2% FBS, 1% Pen/Strep, 1% L-Gln) {daughter plate}. The well is mixed thoroughly. Then an aliquot (3 μl) of Aβ(1-42) [2 mM] is added to the daughter plate wells and again mixed thoroughly. 50 μl is then aspirated and dispensed into wells containing 50 μl media+SH SY5Ycells (cells are also plated in Opti-Mem, at ˜30,000 cells/well/50 μl). Final concentrations of compound on cells range from [50 μM] to [˜15 nM] with a final concentration of Aβ(1-42) of [10 μM].
Cell plates are incubated for 24 h and then the MTT assay (Shearman, 1999). is performed. Briefly, 15 μl of MTT (3-(4,5-dimethylthiazol-2-yl)-2,5-diphenyl-tetrazolium bromide) dye (from Promega) added to each well and the plates incubated in 5% CO2 at 37° C. for 4 hours. 100 μl Stop/solubilsation solution (from Promega) was added to each well and the plates were left overnight in humidified box at room temperature. The plate was shaken and the absorbance was recorded at both 570 nm and 650 nm. ΔA values were calculated by subtracting absorbance at 650 nm from absorbance at 570 nm, to reduce non-specific background absorbance. ΔA values from equivalent experiments were averaged and % cell viability was determined as follows:
Live cell controls: 1% DMSO in Opti-Mem
Dead cell controls: 0.1% Triton X-100 added to cells
Activity of Compounds in Protecting SH SY5Y Cells from a Toxic Insult of 10 μM Aβ(1-42) Using Inhibition of MTT Reduction as a Measure of Cell Viability

[2] = target: T1, Aβ(1-42) (Homo sapiens, UniProt P05067); test: Thioflavin-T fluorimetric assay of Aβ(1-42) aggregation; assay type: biochemical; settings: 10 μM Aβ(1-42); thioflavin-T fluorescence; read-out: IC50 inhibiting 10 μM Aβ(1-42) aggregation
T1 construct: dissolving Aβ(1-42) HCl salt in hexafluoroisopropanol (HFIP)
T1 sequence (P05067 672-713 limits assumed): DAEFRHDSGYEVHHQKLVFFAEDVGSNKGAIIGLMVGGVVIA
Experimental: Aβ(1-42) was prepared for amyloid aggregation and toxicity assays by dissolving Aβ(1-42) HCl salt in hexafluoroisopropanol (HFIP), with brief sonication and vortexing. This solution of the Aβ(1-42) peptide in HFIP was stored at 4° C. @ 2 mM. When required, an aliquot of this stock solution was freeze-dried and dissolved in DMSO to 200 times the required final assay concentration (e.g. 2 mM for a final assay concentration of 10 μM). A 20 mM stock solution of each test compound was prepared in DMSO, and aliquots of these solutions were used to prepare further stock solutions of each test compound in DMSO, ranging in concentration from 3 μM up to 10 mM. These stock solutions were prepared for use as and when required and stored at −20° C. (maximum of 3 freeze-thaw cycles). The 20 mM parent stock solutions were stored frozen at −20° C. The daughter plate is sealed with silver seal and incubated at 37° C. for 24 and 48 hours for the Thioflavin T assay (LeVine and Scholten 1999). The activity of compounds in inhibiting 10 μM Aβ(1-42) aggregation was assessed by using a thioflavin-T fluorimetric assay. At each timepoint, a 50 or 100 μl aliquot is taken from each well of the daughter plate and dispensed into a black 96 well plate. Equal volume (50 or 100 μl) Thioflavin T [40 μM] (in Glycine buffer [50 mM]-NaOH pH 8.5) is added to each well. The plate was shaken and fluorescence was recorded using the top reader setting (10×1 msec), using excitation and emission filters of 440 (±15) and 485 (±10) nm, respectively. Fluorescence readings from equivalent experiments were averaged and % amyloid formation was determined as follows: Activity of Compounds in Inhibiting 10 μM Aβ(1-42) Aggregation Using Thioflavin-T Fluorimetric Assay

Row | IC50 [2] [µM] | SMILES | IC50 ([1]; Homo sapiens, SH-SY5Y) [µM] | IC50 [1] [µM]
1 | 11 | COc1cc(Nc2ccc(Oc3cccc(N4CCOCC4)c3)cn2)ccc1F [Example 27] | 8 | 
2 | 5 | Oc1cccc(Nc2ccc(Oc3ccc(F)cc3)cn2)c1 [Example 1, 3-[5-(4-Fluorophenoxy)pyridin-2-ylamino]-phenol] | 16 | 
3 |  | Oc1cccc(Nc2ccc(Nc3cccc(O)c3)nn2)c1 [RS-0406, reference compound] |  | 40
4 |  | COc1cc(N(C)c2ccc(Oc3cccc(N(C)C)c3)cn2)ccc1F [Example 26, [5-(3-Dimethylaminophenoxy)-pyridin-2-yl]-(4-fluoro-3-methoxy-phenyl)methylamine] | 22 | 
5 | 15 | Oc1cccc(Nc2ccc(Oc3cccc(N4CCOCC4)c3)cn2)c1 [Example 31] |  | 
6 | 9 | COc1cc(Nc2ccc(Oc3cccc(N(C)C)c3)cn2)ccc1F [Example 17, [5-(3-Dimethylaminophenoxy)-pyridin-2-yl]-(4-fluoro-3-methoxy-phenyl)amine] | 16 | 
